Earlier results, collected in article PMC11187573, “Identification of SARS-CoV-2 Mpro inhibitors through deep reinforcement learning for de novo drug design and computational chemistry approaches” (RSC Medicinal Chemistry, 2024).
Read-outs that look alike come from different tables or passages of the source.

System: SARS, SARS-CoV-2 and MERS Mpro
Conditions: cited from earlier work
[1] = Origin COVID_Moonshot, ref COVID Moonshot

Compound	IC50 (Origin ChEMBL, ref ChEMBL)	IC50 [1]
Sc1nnc(Nc2ccccc2)s1 [CHEMBL289356, Sc1nnc(Nc2ccccc2)s1]	390 nM	
O=C(/C=C/c1ccc(O)c(O)c1)O[C@H](Cc1ccc(O)c(O)c1)C(=O)O [CHEMBL324842, OC([C@@H](Cc(cc1)cc(O)c1O)OC(/C=C/c(cc1)cc(O)c1O)=O)=O]	3860 nM	
C[n+]1c2cc(N)ccc2cc2ccc(N)cc21 [CHEMBL354349, C[n+](c1c2)c(cc(cc3)N)c3cc1ccc2N]	3460 nM	
NC(=O)c1ccc2c(c1)C(=O)C(=O)N2Cc1ccc2ccccc2c1 [CHEMBL358279, NC(c(cc1)cc(C2=O)c1N(Cc1cc3ccccc3cc1)C2=O)=O]	245 nM	
Cc1coc2c1C(=O)C(=O)c1c-2ccc2c(C)cccc12 [CHEMBL363535, Cc1coc(-c(ccc2c(C)cccc22)c2C2=O)c1C2=O]	700 nM	
O=C1C(=O)N(Cc2cc3ccccc3s2)c2c(Br)cccc21 [CHEMBL365134, O=C(c1cccc(Br)c1N1Cc2cc(cccc3)c3s2)C1=O]	980 nM	
O=C1C(=O)N(Cc2ccc3ccccc3c2)c2ccc(I)cc21 [CHEMBL383725, O=C(c(cc(cc1)I)c1N1Cc2cc3ccccc3cc2)C1=O]	1100 nM	
O=C1C2CC=CCC2C(=O)N1SC(Cl)(Cl)Cl (centres unmarked) [CHEMBL388676, O=C(C(CC=CC1)C1C1=O)N1SC(Cl)(Cl)Cl]	670 nM	
Cc1ccc(S(=O)(=O)/C=C/C#N)cc1 [CHEMBL403183, Cc(cc1)ccc1S(/C=C/C#N)(=O)=O]	820 nM	
Oc1ccc2ccccc2c1SSc1c(O)ccc2ccccc12 [CHEMBL472940, Oc(ccc1ccccc11)c1SSc(c1ccccc1cc1)c1O]	510 nM	
CN(C)CCNc1nc2cc(O)ccc2c2c1C(=O)c1ccccc1-2 [CHEMBL488755, CN(C)CCNc1nc2cc(O)ccc2c(-c2c3cccc2)c1C3=O]	2990 nM	
O=[N+]([O-])c1ccc(Sc2cccc[n+]2[O-])c2nonc12 [CHEMBL505670, [O-][N+](c(c1nonc11)ccc1Sc(cccc1)[n+]1[O-])=O]	100 nM	
O=[N+]([O-])c1cnc(Sc2nnc(O)n2-c2ccc3c(c2)OCCO3)s1 [CHEMBL508280, [O-][N+](c1cnc(Sc(n2-c(cc3)cc4c3OCCO4)nnc2O)s1)=O]	2050 nM	
Nc1nnc(Sc2ncc([N+](=O)[O-])s2)s1 [CHEMBL510038, Nc1nnc(Sc2ncc([N+]([O-])=O)s2)s1]	30 nM	
CCOC(=O)c1c(N)sc(-c2ccccc2)c1C [CHEMBL566136, CCOC(c1c(N)sc(-c2ccccc2)c1C)=O]	3190 nM	
CC(C)N(CCC(=O)c1ccc2ccccc2c1)Cc1ccccc1 [CHEMBL596674, CC(C)N(CCC(c1cc2ccccc2cc1)=O)Cc1ccccc1]	580 nM	
O=C(O)c1ccc(SSc2ccc(C(=O)O)cn2)nc1 [CHEMBL1161936, OC(c(cc1)cnc1SSc(cc1)ncc1C(O)=O)=O]	240 nM	
COCCCOc1ccnc(C[S+]([O-])c2nc3ccccc3[nH]2)c1C (centres unmarked) [CHEMBL1200930, Cc(c(C[S+](c1nc(cccc2)c2[n-]1)[O-])ncc1)c1OCCCOC]	740 nM	
C[C@@](Cc1ccc(O)c(O)c1)(NN)C(=O)O [CHEMBL1201236, C[C@](Cc(cc1)cc(O)c1O)(C(O)=O)NN]	3550 nM	

Compound	IC50 (Origin ChEMBL, ref ChEMBL)	IC50 [1]
Oc1cc2c(cc1O)[C@H]1c3ccccc3CN[C@@H]1CC2 [CHEMBL1256832, Oc(cc(CC[C@H]([C@@H]12)NCc3c2cccc3)c1c1)c1O]	1050 nM	
O=C1C(Cl)=C(N2CCOCC2)C(=O)N1c1ccc(Cl)c(Cl)c1 [CHEMBL1271993, O=C(C(N1CCOCC1)=C(C1=O)Cl)N1c(cc1)cc(Cl)c1Cl]	2840 nM	
CCC(=O)OCN1C(=O)C=CC1=O [CHEMBL1374426, CCC(OCN(C(C=C1)=O)C1=O)=O]	290 nM	
CCOc1cc(C(Nc2cc(C)ccn2)c2ccc3cccnc3c2O)ccc1OC (centres unmarked) [CHEMBL1397952, CCOc(cc(C(c(ccc1cccnc11)c1O)Nc1nccc(C)c1)cc1)c1OC]	270 nM	
CCN1CCN(C(c2ccc(C(F)(F)F)cc2)c2ccc3cccnc3c2O)CC1 (centres unmarked) [CHEMBL1422849, CCN(CC1)CCN1C(c1ccc(C(F)(F)F)cc1)c(ccc1cccnc11)c1O]	150 nM	
O=C1C=CC(=O)C2=C1C1c3ccccc3C2c2ccccc21 [CHEMBL1474701, O=C(C=C1)C(C(c2c(C34)cccc2)c2c4cccc2)=C3C1=O]	240 nM	
COc1ccc2[nH]c([S+]([O-])Cc3ncc(C)c(OC)c3C)nc2n1 (centres unmarked) [CHEMBL1475252, Cc1cnc(C[S+](c2nc(nc(cc3)OC)c3[nH]2)[O-])c(C)c1OC]	970 nM	
O=C(c1ccc(/C=C/c2n[nH]c3ccccc23)cc1)N1CCNCC1 [CHEMBL1908397, O=C(c1ccc(/C=C/c2n[nH]c3c2cccc3)cc1)N1CCNCC1]	3600 nM	
COc1cccc(C(=O)CCN[C@@H](C)[C@H](O)c2ccccc2)c1 [CHEMBL2354521, C[C@@H]([C@@H](c1ccccc1)O)NCCC(c1cc(OC)ccc1)=O]	2350 nM	
O=C1c2c(O)cc(O)cc2O[C@H](c2cc(O)c(O)c(O)c2)[C@H]1O [CHEMBL3348861, O[C@H]([C@@H](c(cc1O)cc(O)c1O)Oc1c2c(O)cc(O)c1)C2=O]	180 nM	
Oc1cc2c(cc1C(c1ccc(C(F)(F)F)cc1)N1CCOCC1)OCO2 (centres unmarked) [CHEMBL3797437, Oc1c(C(c2ccc(C(F)(F)F)cc2)N2CCOCC2)cc2OCOc2c1]	540 nM	
CC=C1C(OC2OC(CO)C(O)C(O)C2O)OC=C(C(=O)OC)C1CC(=O)OCCc1ccc(O)c(O)c1 (centres unmarked) [CHEMBL4303154, CC=C(C1CC(OCCc(cc2)cc(O)c2O)=O)C(OC(C(C2O)O)OC(CO)C2O)OC=C1C(OC)=O]	3380 nM	
C[C@@H]1O[C@@H](Oc2c(-c3cc(O)c(O)c(O)c3)oc3cc(O)cc(O)c3c2=O)[C@@H](O)[C@H](O)[C@H]1O [CHEMBL4303331, C[C@@H]([C@@H]([C@H]([C@@H]1O)O)O)O[C@H]1OC1=C(c(cc2O)cc(O)c2O)Oc(cc(cc2O)O)c2C1=O]	3660 nM	
Oc1cc(CNC(=S)/C=C/c2cc(O)c(O)c(Br)c2)cc(O)c1O [CHEMBL4303361, Oc1cc(CNC(/C=C/c(cc2O)cc(Br)c2O)=S)cc(O)c1O]	480 nM	
Cc1ccccc1N(C)C(=O)c1ccc([S+]([O-])c2nccs2)c([N+](=O)[O-])c1 (centres unmarked) [CHEMBL4303376, Cc(cccc1)c1N(C)C(c(cc1)cc([N+]([O-])=O)c1[S+](c1nccs1)[O-])=O]	1870 nM	
C=C1C(=O)[C@]23[C@H](O)[C@H]1CC[C@@H]2[C@]12CO[C@]3(O)C[C@@H]1C(C)(C)CC[C@@H]2O [CHEMBL4303503, CC(C)(CC1)[C@@H](C[C@@]([C@@]([C@@H]2O)([C@@H]3CC[C@H]2C2=C)C2=O)(O)OC2)[C@@]23[C@H]1O]	2570 nM	
O=C1C=Cc2cc(Br)ccc2C1=O [CHEMBL4303595, O=C(C=Cc1c2ccc(Br)c1)C2=O]	100 nM	
CCc1ccc(/C=C/C(=O)Nc2ccc(C(C)=O)cc2)o1 [CHEMBL4303618, CCc1ccc(/C=C/C(Nc(cc2)ccc2C(C)=O)=O)o1]	4950 nM	
N#CSc1cc(SC#N)c(N)nc1N [CHEMBL4303622, Nc(c(SC#N)c1)nc(N)c1SC#N]	1360 nM	

Compound	IC50 (Origin ChEMBL, ref ChEMBL)	IC50 [1]
CC(C)C[C@@H]1CN(C(=O)CCl)CCN1Cc1cccc(Cl)c1 [DAN-LON-a5fc619e-3, CC(C)C[C@H](C1)N(Cc2cccc(Cl)c2)CCN1C(CCl)=O]		784 nM
O=C(CCl)N1CC2CC1CN2Cc1cccc(Cl)c1 (centres unmarked) [DAN-LON-a5fc619e-8, O=C(CCl)N1C(C2)CN(Cc3cccc(Cl)c3)C2C1]		2170 nM
CCNc1ncc(C#N)cc1CN1CCN(C(=O)CCl)CC1 [DAR-DIA-fb20be43-4, CCNc(nc1)c(CN(CC2)CCN2C(CCl)=O)cc1C#N]		3220 nM
N#Cc1cc(CN2CCN(C(=O)CCl)CC2)c2ccccc2c1 [DAR-DIA-fb20be43-6, N#Cc1cc2ccccc2c(CN(CC2)CCN2C(CCl)=O)c1]		4610 nM
COc1cc(CN2CCN(C(=O)CCl)CC2)c2ccccc2c1 [DAR-DIA-fb20be43-7, COc1cc2ccccc2c(CN(CC2)CCN2C(CCl)=O)c1]		2750 nM
CC(NC(=O)CCl)c1cc(Cl)cc(-c2ccc(S(N)(=O)=O)cc2)c1 (centres unmarked) [DAV-CRI-14a23e73-1, CC(c1cc(Cl)cc(-c(cc2)ccc2S(N)(=O)=O)c1)NC(CCl)=O]		466 nM
O=C(Nc1cccnc1)N(CCC1CCCCC1)c1cccc(Cl)c1 [JOR-UNI-2fc98d0b-12, O=C(Nc1cnccc1)N(CCC1CCCCC1)c1cccc(Cl)c1]		3060 nM
O=C(NCc1ccc2c(c1)OCO2)c1nc(S(=O)(=O)Cc2ccccc2)ncc1Cl [LON-WEI-4d77710c-10, O=C(c(nc(nc1)S(Cc2ccccc2)(=O)=O)c1Cl)NCc(cc1)cc2c1OCO2]		1400 nM
O=S(=O)(Nc1ccccc1SCc1cccc(Cl)c1F)c1cc(Cl)sc1Cl [LON-WEI-4d77710c-64, O=S(c(cc(s1)Cl)c1Cl)(Nc(cccc1)c1SCc1cccc(Cl)c1F)=O]		2230 nM
O=[N+]([O-])c1cnc(Sc2nnc(-c3ccc(Cl)cc3)o2)s1 [LON-WEI-4d77710c-67, [O-][N+](c1cnc(Sc2nnc(-c(cc3)ccc3Cl)o2)s1)=O]		881 nM
CCOC(=O)c1ccc(NC(=O)CC2SC(=O)N(c3ccccc3)C2=O)cc1 (centres unmarked) [LON-WEI-4d77710c-74, CCOC(c(cc1)ccc1NC(CC(C(N1c2ccccc2)=O)SC1=O)=O)=O]		2400 nM
Cc1ccccc1NC(=O)CC1SC(=O)N(c2ccccc2)C1=O (centres unmarked) [LON-WEI-4d77710c-75, Cc(cccc1)c1NC(CC(C(N1c2ccccc2)=O)SC1=O)=O]		443 nM
O=C(CCl)N1CCN(S(=O)(=O)c2c(F)cccc2F)CC1 [LON-WEI-8f408cad-2, O=C(CCl)N(CC1)CCN1S(c(c(F)ccc1)c1F)(=O)=O]		3280 nM
O=C(CCl)N1CCN(S(=O)(=O)c2cccs2)CC1 [LON-WEI-8f408cad-3, O=C(CCl)N(CC1)CCN1S(c1cccs1)(=O)=O]		2160 nM
O=C(CCl)N1CCN(Cc2ccsc2)CC1 [LON-WEI-8f408cad-7, O=C(CCl)N1CCN(Cc2cscc2)CC1]		3500 nM
C=CC(=O)N(c1ccc(C(C)(C)C)cc1)C(C(=O)NCCc1cccc(F)c1)c1cccnc1 (centres unmarked) [LON-WEI-adc59df6-47, CC(C)(C)c(cc1)ccc1N(C(C(NCCc1cccc(F)c1)=O)c1cnccc1)C(C=C)=O]		2960 nM
CS(=O)(=O)c1ncc(Cl)c(C(=O)Nc2ccccc2Cc2ccccc2)n1 [LON-WEI-ff7b210a-4, CS(c(nc1)nc(C(Nc2c(Cc3ccccc3)cccc2)=O)c1Cl)(=O)=O]		503 nM
CCOC(=O)c1nc(S(C)(=O)=O)ncc1Cl [LON-WEI-ff7b210a-5, CCOC(c(nc(nc1)S(C)(=O)=O)c1Cl)=O]		1600 nM
